Assays:
[1] = target: T1, PDK1 (Homo sapiens, UniProt O15530); assay: SelectScreen kinase profiling: PDK1; format: biochemical; details: 1 µM compound; [ATP] 100 µM; single point
T1 sequence (O15530 1-556): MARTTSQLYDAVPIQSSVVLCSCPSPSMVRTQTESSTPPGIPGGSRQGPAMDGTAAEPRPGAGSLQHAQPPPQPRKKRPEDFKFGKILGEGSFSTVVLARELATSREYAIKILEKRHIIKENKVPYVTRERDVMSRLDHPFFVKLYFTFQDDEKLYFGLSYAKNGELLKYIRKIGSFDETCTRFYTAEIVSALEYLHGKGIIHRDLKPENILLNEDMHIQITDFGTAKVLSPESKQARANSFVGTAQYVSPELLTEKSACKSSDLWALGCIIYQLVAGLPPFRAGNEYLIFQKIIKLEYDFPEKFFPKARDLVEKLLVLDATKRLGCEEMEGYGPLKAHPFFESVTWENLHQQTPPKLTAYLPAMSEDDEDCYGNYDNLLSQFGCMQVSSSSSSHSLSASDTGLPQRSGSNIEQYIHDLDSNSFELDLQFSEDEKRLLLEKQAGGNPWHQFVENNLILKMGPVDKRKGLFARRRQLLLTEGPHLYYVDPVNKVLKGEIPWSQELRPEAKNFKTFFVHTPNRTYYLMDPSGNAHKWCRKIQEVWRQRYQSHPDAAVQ
Method: Effect of the indicated compounds on the activity of various kinases was assessed by SelectScreen Kinase Profiling Service (Invitrogen-Life Technologies, Paisley, UK). Assays were performed using 1 μM of the tested compounds and ATP concentration as indicated in the corresponding tables. In the case of […] a screen using 10 μM of the compound was also carried out, as indicated in the corresponding table.

[2] = test system: MCF7; assay: Cell survival by cell counting, MCF7; format: cell-based, human; details: MCF7, 72 h, 20 nM 4-OH Tamoxifen, 50 μM 2-O-Bn-InsP5 alone or in combination
Method: Cells seeded in a 24-well plate were treated with the indicated compounds in serum free DMEM or DMEM containing 0.5% FBS (PC3). After 72 h, the number of surviving cells was assessed by manual cell counting or by using the cell counter CDA-500 (Sysmex, Milton Keynes, UK). Alternatively, after 48 h, the number of apoptotic cells was assessed by acridine orange/ethidium bromide assay as described ([Piccolo et al, 2004]; [Maffucci et al, 2005]). SRB test was carried out in SKOV-3 and PC3 seeded in 96-well plate (3800 cells per well or 5800 cells per well, respectively) after 72 h of treatment as described ([Cappella et al, 2001]).
Data are mean±s.e. of n=4 independent experiments carried out in duplicate. […] Data are mean±s.e. of n=5 independent experiments carried out in duplicate. […] Data are mean±s.e. of n=6 independent experiments carried out in duplicate. […] Data are mean±s.e. of n=2 independent experiments carried out in duplicate. In all cases (A–D), cells were treated for 72 h and the number of surviving cells was assessed by cell counting. […] In all cases (E, F), cells were treated for 72 h and the number of surviving cells was assessed by SRB assay and data are mean±s.e. of two experiments carried out in quadruplicate.

| Compound | % Inhibition Mean [1] | number of surviving cells [2] |
| --- | --- | --- |
| O=P(O)(O)O[C@H]1[C@H](OP(=O)(O)O)[C@@H](OP(=O)(O)O)[C@H](OP(=O)(O)O)[C@@H](OP(=O)(O)O)[C@H]1OP(=O)(O)O [Ins(1,2,3,4,5,6)P6] | 18% |  |
| 4-hydroxy-tamoxifen [4-OH tamoxifen, reference compound] |  | reduced the number of surviving cells |
| O=P(O)(O)O[C@@H]1[C@H](O)[C@H](O)[C@@H](OP(=O)(O)O)[C@H](OP(=O)(O)O)[C@H]1O [Ins(1,4,5)P3] | 17% |  |
| O=P(O)(O)O[C@H]1[C@H](OP(=O)(O)O)[C@@H](OP(=O)(O)O)[C@@H](O)[C@@H](O)[C@@H]1OP(=O)(O)O [Ins(1,4,5,6)P4] | 33% |  |
| O=P(O)(O)O[C@H]1[C@H](O)[C@@H](OP(=O)(O)O)[C@H](OP(=O)(O)O)[C@@H](OP(=O)(O)O)[C@H]1O [Ins(1,3,4,5)P4] | 56% |  |
| O=P(O)(O)O[C@H]1[C@H](OP(=O)(O)O)[C@@H](OP(=O)(O)O)[C@@H](O)[C@@H](O)[C@@H]1OP(=O)(O)O [Ins(3,4,5,6)P4] | 35% |  |

— paper PMC2813745, “A novel inhibitor of the PI3K/Akt pathway based on the structure of inositol 1,3,4,5,6-pentakisphosphate” (British Journal of Cancer, 2010)
